Assay [1] deals with T1, human orexin-2 receptor (Homo sapiens (Human), UniProt O43614). Kind of assay: radioligand binding assay, orexin-2 receptor. As to conditions: read-out: hOX2R BIND hKi.
The target in assay [2] is rat orexin-1 receptor (Rattus norvegicus (Rat), UniProt P56718). Kind of assay: FLIPR Ca2+ Flux Assay, orexin-1 receptor. It is filed as cell-based. As to conditions: read-out: hOX1R FLIPR IC50. In short, it runs like this: (§1)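 Using CHO lines carrying either rat orexin-1 or human orexin-2 receptor, compounds were tested as antagonists of 70 pM Ala-6,12 orexin-A-evoked calcium rises. Fluo-4 signal was read on a FLIPR over 5 min after a 5 min compound preincubation.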
Chain of rat orexin-1 receptor (P56718 whole entry): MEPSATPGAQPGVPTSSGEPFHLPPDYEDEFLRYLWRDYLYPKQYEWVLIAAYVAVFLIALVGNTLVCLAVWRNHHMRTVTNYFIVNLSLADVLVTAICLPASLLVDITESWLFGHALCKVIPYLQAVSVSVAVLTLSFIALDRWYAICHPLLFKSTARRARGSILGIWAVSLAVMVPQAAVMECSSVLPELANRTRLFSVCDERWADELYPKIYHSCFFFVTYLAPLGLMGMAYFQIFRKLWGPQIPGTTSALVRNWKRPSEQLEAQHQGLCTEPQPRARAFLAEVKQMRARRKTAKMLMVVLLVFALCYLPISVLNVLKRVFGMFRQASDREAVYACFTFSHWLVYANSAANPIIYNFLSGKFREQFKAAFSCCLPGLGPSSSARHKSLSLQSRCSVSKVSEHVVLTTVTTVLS

The target of assay [3] is T1, human orexin-2 receptor. Description: FLIPR Ca2+ Flux Assay, orexin-2 receptor. As to conditions: read-out: hOX2R FLIPR IC50. In kind it is cell-based. The method, boiled down: as §1
The target in assay [4] is orexin-1 receptor (hOX1R) (Rattus norvegicus, UniProt P56718). Description: radioligand binding assay, orexin-1 receptor. As to conditions: membranes prepared from CHO cells expressing the OX1 receptor; read-out: hOX1R BIND hKi. On the procedure:
In a typical experiment the OX1 and OX2 receptor antagonistic activity of the compounds of the present invention was determined in accordance with the following experimental method. For intracellular calcium measurements, Chinese hamster ovary (CHO) cells expressing the rat orexin-1 receptor or the human orexin-2 receptor, are grown in Iscove's modified DMEM containing 2 mM L-glutamine, […], 1% hypoxanthine-thymidine supplement, 100 U/ml penicillin, 100 μg/ml streptomycin and 10% heat-inactivated fetal calf serum (FCS). The cells are seeded at 20,000 cells/well into Becton-Dickinson black 384-well clear bottom sterile plates coated with poly-D-lysine. […] Within the Fluorescent Imaging Plate Reader (FLIPR, Molecular Devices), test compounds are added to the plate in a volume of 25 μl, incubated for 5 min and finally 25 μl of agonist is added. Fluorescence is measured for each well at 1 second intervals for 5 minutes and the height of each fluorescence peak is compared to the height of the fluorescence peak induced by 70 pM Ala-6,12 orexin-A with buffer in place of antagonist. […] Alternatively, compound potency can be assessed by a radioligand binding assay (described in Bergman et. al. Bioorg. Med. Chem. Lett. 2008, 18, 1425-1430) in which the inhibition constant (Ki) is determined in membranes prepared from CHO cells expressing either the OX1 or OX2 receptor. […]

The mark [5] stands for this setting: membranes prepared from CHO cells expressing the OX2 receptor.
Where [6] appears, read: CHO cells expressing the rat orexin-1 receptor, agonist 70 pM Ala-6,12 human orexin-A.
Where [7] appears, read: CHO cells expressing the human orexin-2 receptor, agonist 70 pM Ala-6,12 human orexin-A.

Like-named read-outs stand apart in the source and are kept apart here.

T1 sequence (O43614 whole entry): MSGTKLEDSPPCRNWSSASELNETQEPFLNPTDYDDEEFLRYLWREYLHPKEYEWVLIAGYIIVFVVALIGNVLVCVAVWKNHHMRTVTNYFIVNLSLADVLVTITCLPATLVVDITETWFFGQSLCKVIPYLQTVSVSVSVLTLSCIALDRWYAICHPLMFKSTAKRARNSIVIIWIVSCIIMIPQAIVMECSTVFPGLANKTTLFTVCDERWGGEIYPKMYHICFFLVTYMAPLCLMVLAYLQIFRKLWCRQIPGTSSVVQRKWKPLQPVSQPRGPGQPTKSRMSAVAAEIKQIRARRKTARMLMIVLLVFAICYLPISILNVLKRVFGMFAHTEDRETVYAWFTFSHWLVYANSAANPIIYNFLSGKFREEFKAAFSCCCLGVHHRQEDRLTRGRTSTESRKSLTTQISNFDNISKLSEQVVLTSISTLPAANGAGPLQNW
Chain of orexin-1 receptor (hOX1R) (P56718 whole entry, looked up): as the sequence (P56718 whole entry) above

As to `COc1c(C#N)ccnc1O[C@@H]1CC[C@@H](C)N(C(=O)c2cccc(F)c2-n2nccn2)C1` [Example 97, 2-{[(3R,6R)-1-{[3-fluoro-2-(2H-1,2,3-triazol-2-yl)phenyl]carbonyl}-6-methylpiperidin-3-yl]oxy}-3-methoxypyridine-4-carbonitrile], the Ki in assay [1] (setting [5]) was found to be 0.3 nM. In addition, the IC50 in assay [2] (setting [6]) was determined as 1100 nM; in assay [3] (setting [7]), 19 nM.
Turning to `COc1c(C#N)ccnc1O[C@@H]1CC[C@@H](C)N(C(=O)c2cc(F)ccc2-n2nccn2)C1` [Example 99, 2-{[(3R,6R)-1-{[5-fluoro-2-(2H-1,2,3-triazol-2-yl)phenyl]carbonyl}-6-methylpiperidin-3-yl]oxy}-3-methoxypyridine-4-carbonitrile], the Ki in assay [1] (setting [5]) is 0.4 nM. For the same molecule, the results for the IC50 in assay [2] (setting [6]) and in assay [3] (setting [7]) were 2430 nM and 15 nM, respectively.
The like results for `COc1c(C#N)ccnc1O[C@@H]1CC[C@@H](C)N(C(=O)c2c(F)cccc2-n2nccn2)C1` [Example 100, 2-{[(3R,6R)-1-{[2-fluoro-6-(2H-1,2,3-triazol-2-yl)phenyl]carbonyl}-6-methylpiperidin-3-yl]oxy}-3-methoxypyridine-4-carbonitrile] were, in that order, 0.3 nM, 1440 nM and 25 nM.
For `COc1c(C#N)ccnc1O[C@@H]1CC[C@@H](C)N(C(=O)c2cccc(C)c2-n2nccn2)C1` [Example 101, 3-methoxy-2-{[(3R,6R)-6-methyl-1-{[3-methyl-2-(2H-1,2,3-triazol-2-yl)phenyl]carbonyl}piperidin-3-yl]oxy}pyridine-4-carbonitrile], the Ki in assay [1] (setting [5]) was found to be 0.3 nM. The IC50 is 957 nM in assay [2] (setting [6]) and 21 nM in assay [3] (setting [7]).
Turning to `COc1c(C#N)ccnc1O[C@@H]1CC[C@@H](C)N(C(=O)c2ccc(C)cc2-n2nccn2)C1` [Example 102, 3-methoxy-2-{[(3R,6R)-6-methyl-1-{[4-methyl-2-(2H-1,2,3-triazol-2-yl)phenyl]carbonyl}piperidin-3-yl]oxy}pyridine-4-carbonitrile], the Ki in assay [1] (setting [5]) is 0.4 nM. In addition, the figures for the IC50 in assay [2] (setting [6]) and in assay [3] (setting [7]) were 3550 nM and 21 nM, respectively.
Regarding `COc1c(C#N)ccnc1O[C@@H]1CC[C@@H](C)N(C(=O)c2cc(C)ccc2-n2nccn2)C1` [Example 103, 3-methoxy-2-{[(3R,6R)-6-methyl-1-{[5-methyl-2-(2H-1,2,3-triazol-2-yl)phenyl]carbonyl}piperidin-3-yl]oxy}pyridine-4-carbonitrile], the Ki in assay [1] (setting [5]) is 0.4 nM. In addition, the IC50 came out at 1010 nM in assay [2] (setting [6]) and 24 nM in assay [3] (setting [7]).
In the case of `COc1ccc(C(=O)N2C[C@H](Oc3nccc(C#N)c3OC)CC[C@H]2C)c(-n2nccn2)n1` [Example 104, 3-methoxy-2-{[(3R,6R)-1-{[6-methoxy-2-(2H-1,2,3-triazol-2-yl)pyridin-3-yl]carbonyl}-6-methylpiperidin-3-yl]oxy}pyridine-4-carbonitrile], the Ki in assay [1] (setting [5]) was 2 nM. The IC50 is over 10000 nM in assay [2] (setting [6]) and 29 nM in assay [3] (setting [7]).
Take `COc1c(C#N)ccnc1O[C@@H]1CC[C@@H](C)N(C(=O)c2ccccc2C2CCC2)C1` [Example 105, 2-({(3R,6R)-1-[(2-cyclobutylphenyl)carbonyl]-6-methylpiperidin-3-yl}oxy)-3-methoxypyridine-4-carbonitrile]: the Ki in assay [1] (setting [5]) was 0.2 nM. Moreover, the IC50 in assay [2] (setting [6]) is 3500 nM; in assay [3] (setting [7]), 36 nM.
Take `COc1c(C#N)ccnc1O[C@@H]1CC[C@@H](C)N(C(=O)c2ccccc2-c2ncccn2)C1` [Example 107, 3-methoxy-2-({(3R,6R)-6-methyl-1-[(2-pyrimidin-2-ylphenyl)carbonyl]piperidin-3-yl}oxy)pyridine-4-carbonitrile]: the Ki in assay [1] (setting [5]) amounted to 0.4 nM. Also, the IC50 in assay [2] (setting [6]) worked out at 2750 nM; in assay [3] (setting [7]) it was 33 nM.
With `COc1c(C#N)ccnc1O[C@@H]1CC[C@@H](C)N(C(=O)c2cccc(F)c2-c2ncccn2)C1` [Example 109], the Ki in assay [1] is 1.1 nM; in assay [4], 482 nM. Further, the IC50 turned out to be 2850 nM in assay [2] and 26 nM in assay [3].
For the molecule `COc1c(C#N)ccnc1O[C@@H]1CC[C@@H](C)N(C(=O)c2ccc(F)cc2-c2ncccn2)C1` [Example 110, 2-({(3R,6R)-1-[(4-fluoro-2-pyrimidin-2-ylphenyl)carbonyl]-6-methylpiperidin-3-yl}oxy)-3-methoxypyridine-4-carbonitrile], the Ki in assay [1] (setting [5]) came to 0.6 nM. In addition, the IC50 worked out at 1240 nM in assay [2] (setting [6]) and 39 nM in assay [3] (setting [7]).
Take `COc1c(C#N)ccnc1O[C@@H]1CC[C@@H](C)N(C(=O)c2cc(F)ccc2-c2ncccn2)C1` [Example 111, 2-({(3R,6R)-1-[(5-fluoro-2-pyrimidin-2-ylphenyl)carbonyl]-6-methylpiperidin-3-yl}oxy)-3-methoxypyridine-4-carbonitrile]: the Ki in assay [1] (setting [5]) stood at 0.3 nM. Also, the IC50 was found to be 945 nM in assay [2] (setting [6]) and 18 nM in assay [3] (setting [7]).
The like results for `COc1c(C#N)ccnc1O[C@@H]1CC[C@@H](C)N(C(=O)c2ccccc2-n2ncnn2)C1` [Example 115, 3-Methoxy-2-{[(3R,6R)-6-methyl-1-{[2-(2H-tetrazol-2-yl)phenyl]carbonyl}piperidin-3-yl]oxy}pyridine-4-carbonitrile] were, in that order, 1.4 nM, 1650 nM and 6 nM.
